We go through 1 compound from patent US20250127772A1, “SPECIFIC TETRADENTATE COPPER CHELATORS FOR THE TREATMENT OF WILSON'S DISEASE” (GUANGDONG UNIVERSITY OF TECHNOLOGY, priority 2023, published 2025).

Values joined by “and” are separate entries in the source; they are usually repeats but may differ in a detail not shown here. Identical values can stand only once. Like-named read-outs stand apart in the source and are kept apart here.

The data set relates to homozygous toxic-milk mouse model (TX model). It is filed as in vivo. Conditions: for Cu content Brain / Cu content Feces / Cu content Kidney / Cu content Liver / Cu content Serum / Cu content Urine: mean of 6 mice ± SEM. The source says:
The selected drug-candidate TDMQ20 has been evaluated on the homozygous toxic-milk mouse model (TX model), a regular murine model of Wilson disease, suitable for evaluation of drug-candidates (for a review, see E. Reed et al., J. Neurochem., 146, 356-373, 2018). TX mice are bearing a naturally occurring point mutation on ATP7B resulting in a methionine changed for a valine, that causes the loss of copper transportation by this protein. C57BL/6 mice have no mutation on ATP7B and were used as control mice in the evaluation of TDMQ20. TX mice were provided by Sun Yat-Sen University (Guangzhou) and C57BL/6 mice by the Guangdong experimental animal center (Guangzhou) and all experiments were performed according to protocols approved by the Welfare Laboratory Animals Committee of the Guangdong University of Technology (approval n° GDUTXS2022083 dated on 3 Aug. 2022), in the framework of the 3 Rs principle.
[…] TX mice (WD) and 8-week-old C57BL/6 mice (Control) were used. TX mice (as WD, TDMQ-L, TDMQ-M, TDMQ-H groups, respectively) received the drug TDMQ20 by intragastric gavage twice a day for 14 consecutive days (at 0, 12.5, 25.0, 50.0 mg/kg in NaCl 0.9%). On the same schedule, C57BL/6 mice (as control group) received NaCl 0.9%. Treatment of WD mice with DPA (200 mg/kg) was used as comparison (DPA group). Six groups of 6 mice were used.
At the end of the treatment period, mice (10-week old) were placed in metabolic cages for 12 h in order to collect urine and feces. At the end of this 12 h-period, mice were anesthetized using 2.5% Avertin diluted in 0.9% NaCl at a dose of […] body weight and sacrificed. Cardiac blood was collected and left at room temperature for 30 minutes before centrifugation at 4° C. at 3000 r/min for 10 minutes to obtain serum samples. During this 30-min period, liver, kidney, brain and serum were also collected. Copper concentrations in urine and feces, serum, liver, kidney and brain were determined by inductively coupled plasma mass spectrometry (ICP-MS). Data analysis was carried out using SPSS Statistics software (version 26). Data are provided as mean values±standard error of the mean (SEM). Statistical analyses were performed using one-way ANOVA for liver, feces and urine, and by non-parametric test for serum, kidney, and brain. Differences with p>0.05 were considered as no significance (ns), * p<0.05, ** p<0.01, and *** p<0.001, n=6. Graph presentations were drawn with Prism GraphPad 8.0.2.

Where [1] appears, read: TX mice, TDMQ20-H 50 mg/kg/day gavage 14 days.
The mark [2] stands for this setting: TX mice, TDMQ20-L 12.5 mg/kg/day gavage 14 days.
Setting [3] is: TX mice, TDMQ20-M 25 mg/kg/day gavage 14 days.

Turning to `CN(C)CCNCCc1ccc2c(Cl)cc(Cl)c(N)c2n1` [TDMQ20], the “copper content in feces versus untreated WD mice or DPA 200 mg/kg/day” value (TX mice, TDMQ20 25 or 50 mg/kg/day) was “significantly higher”. In addition, under setting [1], the “Cu content Brain” value stood at 3.5 ± 0.1 mg/kg, the “Cu content Feces” value turned out to be 142 ± 10 mg/kg, the “Cu content Kidney” value is recorded as 11.0 ± 1.7 mg/kg and the “Cu content Liver” value is recorded as 200 ± 14 mg/kg. Also, under setting [1], the “Cu content Serum” value was determined as 3.5 ± 0.6 mg/L and the “Cu content Urine” value stood at 0.98 ± 0.05 mg/L. Further, under setting [2], the “Cu content Brain” value is 3.2 ± 0.2 mg/kg, the “Cu content Feces” value was determined as 88 ± 3 mg/kg, the “Cu content Kidney” value came to 5.5 ± 0.3 mg/kg and the “Cu content Liver” value was 290 ± 4 mg/kg. Also, under setting [2], the “Cu content Serum” value was found to be 0.63 ± 0.04 mg/L and the “Cu content Urine” value amounted to 0.76 ± 0.13 mg/L. Further, under setting [3], the “Cu content Brain” value was determined as 3.3 ± 0.2 mg/kg; the “Cu content Feces” value stood at 129 ± 4 mg/kg; the “Cu content Kidney” value is 5.0 ± 0.4 mg/kg; the “Cu content Liver” value is 256 mg/kg and 256 ± 8 mg/kg. Under setting [3], the “Cu content Serum” value was found to be 0.83 ± 0.12 mg/L and the “Cu content Urine” value was determined as 0.67 ± 0.10 mg/L. Besides, the “copper concentration in urine, concentration ratio TDMQ20-H/WD” value (TX mice, TDMQ20 at 50 mg/kg, factor versus WD mice, 50 mg/kg) was 1.8 and 1.75. The “concentration of copper in kidney, factor versus WD mice” value (TX mice, TDMQ20 at 50 mg/kg, ratio TDMQ20-H/WD) came out at 1.64. The “copper concentration in the brain versus WD mice” value (mouse, in vivo) is “no increase of copper concentration”.
